According to patent US20090017103A1, “Antisense oligonucleotides for prevention of metastasis formation of cancer cells” (priority 2003, published 2009):
Marks after values point to notes of the source that are not given here.

Legend:
Format in all cases: cell-based, human
osteopontin = test: Western blot of osteopontin expression after exposure to ASOs; details: MDA-MB231, lipofectamine, 10 μM
[1] = system: MDA-MB-231 breast cancer cells; test: Clonogenicity assay (colony formation); details: for % Control / Mean colony no.: Experiment II, single treatment; for Mean colony no.: control 705; for inhibition of colony formation (colony growth inhibition): single exposure
Procedure: For determining the response of MDA-MB-231 colony formation to exposure with antisense oligonucleotides and erucylphospho-NNN-trimethylpropanolamine (ErPC3) the following procedure was used. MDA-MB-231 cells were treated for various periods of time (see below), harvested and counted. Cells (5000) were then transferred into semi-solid medium containing 0.8t RPMI-methylcellulose and 30% FBS. Cells were plated onto 3.5 cm Petri-dishes (1 ml/dish) (NUNC, Wiesbaden, Germany) and usual cell culture conditions (37° C., 5% CO2 in humidified air) were applied. Colony formation (clusters of 30 or more cells) was visualized by staining with 3-[4,5-dimethylthiazol-2-yl]-2,5-diphenyltetrazolium-bromide (MTT; Serva, Heidelberg, Germany) and the resulting dark blue colonies were scored by an inverted microscope after 5-7 days. At least three dishes per treatment protocol were used.
Pending on the duration of treatment, 1×10^5-3×10^5 cells were transferred onto 6 well plates (Nunc, Wiesbaden, Germany) and grown for 24 h. For transfection, ASO stock solutions were prepared in medium without FBS. According to the protocol of the manufacturer, the respective ASO stock solution was mixed with lipofectamine to allow ASO-liposome complexes to form. To 200 μl medium containing ASO quantities resulting in 10 μM (Western blot and in vivo model) and in 5, 10, or 20 μM (clonogenicity assay) final ASO-concentrations, an equal volume of medium without FBS was added containing 5, 10, or 20 μl lipofectamine, respectively. In addition to the ASO treatment, a NSO control (20 μM final concentration with 20 μl lipofectamine) and a lipofectamine control (20 μl) were used. […] After 12 h the medium was changed, and cells were further grown for 48-72 h. In the case of a sequential combination treatment this first cycle was repeated with the respective combination partner.
The alkylphosphocholine ErPC3 was synthesized and provided by Prof. H. Eibl (MPI of Biophysical Chemistry, Göttingen, FRG). For treating MDA-MB-231 cells, ErPC3 which was kept as stock solution in ethanol and PBS (10 mM; ratio of diluents 1:1; V:V), was diluted in PBS resulting in final concentrations of 10, 14, and 20 μM. The medium containing ErPC3 was changed after 24 h in all experiments and the cells were further grown for 48-72 h without ErPC3 (for details of sequential exposure see below).
Sequential combination treatment consisted of two or three treatment cycles. The two cycle treatment started either with the ASO and was followed by ErPC3 or was performed with the reverse sequence. The three cycle treatment started either with two cycles of ASO followed by ErPC3 or an initial exposure to ErPC3 was followed by two cycles with an ASO.
Colony counts are presented as mean with corresponding standard deviation. For comparison of incidences between treatment groups the x^2 test was used and for comparison of the lesion sizes the Kruskal-Wallis test was applied. P values≦0.05 were considered significant. Predicted theoretical values of combinations were calculated according to the equation: C=a×b/100, where a and b are colony counts in percent of untreated control obtained in response to single agents. For each concentration applied theoretical values were calculated and compared with the real value of the combination. In addition, isobologram and multiple drug effect analysis was examined by a suitable program (CalcuSyn, Biosoft, Ferguson, USA) to study the nature of the interaction observed. For this purpose, the dose-effect curve for each drug alone was determined based on the experimental observations using the median-effect principle; the combination index (CI) for each combination was then calculated according to the following equation:
CI=(D)1/(Dx)1+(D)2/(Dx)2+(D1)×(D2)/(Dx)1×(Dx)2
where (D)1 and (D)2 are the doses of drug 1 and drug 2 that have x effect when used in combination and (Dx)1 and (Dx)2 are the doses of drug 1 and drug 2 that have the same x effect when used alone. […]

osteonectin = test: Western blot of osteonectin expression after exposure to ASOs; details: for osteonectin expression in relation to untreated control (100%): single exposure, lipofectamine, 10 μM
[2] = MDA-MB231^F (growing without FBS)

Substance: 5′-ACACTAACTTAAAAAACAAA-3′ (antisense ACACTAACTTAAAAAACAAA; all phosphorothioate, sugars by position and methylation of C not given here) [ASO-OPN-5]
- osteopontin expression in relation to untreated control (100%) (osteopontin; single exposure): 43%
- osteopontin expression in relation to untreated control (100%) (osteopontin; twofold exposure): 80%

Substance: 5′-TTCAGGTCCTGGGCAACGGG-3′ [ASO-OPN-2]
- osteopontin expression in relation to untreated control (100%) (osteopontin; single exposure): 45%
- osteopontin expression in relation to untreated control (100%) (osteopontin; twofold exposure): 60%

Substance: 5′-CTCATGGTAGTGAGTTTTCC-3′ (antisense CTCATGGTAGTGAGTTTTCC; all phosphorothioate, sugars by position and methylation of C not given here) [ASO-OPN-1]
- osteopontin expression in relation to untreated control (100%) (osteopontin; single exposure): 25^2)3) %
- osteopontin expression in relation to untreated control (100%) (osteopontin; twofold exposure): 34^2)3) %

Substance: 5′-ATGTGGCCACAGCATCTGGG-3′ (antisense ATGTGGCCACAGCATCTGGG; all phosphorothioate, sugars by position and methylation of C not given here) [ASO-OPN-8]
- osteopontin expression in relation to untreated control (100%) (osteopontin; single exposure): 48%
- osteopontin expression in relation to untreated control (100%) (osteopontin; twofold exposure): 97%

Substance: 5′-GTGGCCACAGCATCTGGGTA-3′ [ASO-OPN-6] (antisense GTGGCCACAGCATCTGGGTA; all phosphorothioate, sugars by position and methylation of C not given here)
- osteopontin expression in relation to untreated control (100%) (osteopontin; single exposure): 45%
- osteopontin expression in relation to untreated control (100%) (osteopontin; twofold exposure): 68%

Substance: 5′-GGGGGCTGGGCAGCTGGTGG-3′ (antisense GGGGGCTGGGCAGCTGGTGG; all phosphorothioate, sugars by position and methylation of C not given here) [ASO-ON-3]
- % Control ([1]; 5 μM): 92%
- Mean colony no. ([1]; 5 μM): 648^6)
- % Control ([1]; 10 μM): 82%
- Mean colony no. ([1]; 10 μM): 576^7)
- % Control ([1]; 20 μM): 73%
- Mean colony no. ([1]; 20 μM): 514
- inhibition of colony formation (colony growth inhibition) ([1]; 5 μM): 8%
- inhibition of colony formation (colony growth inhibition) ([1]; 10 μM): 14%
- inhibition of colony formation (colony growth inhibition) ([1]; 20 μM): 27%
- inhibition of colony formation (colony growth inhibition) ([1]; 20 μM, listed as ASO-ON-03, 20 µM): 21%
- osteonectin expression in relation to untreated control (100%) (osteonectin; MDA-MB231): 25%
- osteonectin expression in relation to untreated control (100%) (osteonectin; [2]): 22%
- osteonectin expression in relation to untreated control (100%) (osteonectin; MDA-MB435s): 29%
- decrease of osteonectin (osteonectin; MDA-MB-231 cells): 75%
- maximum inhibition of protein expression / suppression of protein level (ON) (osteonectin; MDA-MB-231 cells, Western blot): 75%

Substance: 5′-ATGTTATAGTTCTTCTCGAA-3′ [ASO-ON-5]
- osteonectin expression in relation to untreated control (100%) (osteonectin; MDA-MB231): 30%
- osteonectin expression in relation to untreated control (100%) (osteonectin; [2]): 22%
- osteonectin expression in relation to untreated control (100%) (osteonectin; MDA-MB435s): 27%
- decrease of osteonectin (osteonectin; MDA-MB-231 cells): 70%

Substance: 5′-ATGCGCAGGGGGAATTCGGT (antisense ATGCGCAGGGGGAATTCGGT; all phosphorothioate, sugars by position and methylation of C not given here) [ASO-ON-4]
- osteonectin expression in relation to untreated control (100%) (osteonectin; MDA-MB231): 50%
- osteonectin expression in relation to untreated control (100%) (osteonectin; [2]): 31%
- osteonectin expression in relation to untreated control (100%) (osteonectin; MDA-MB435s): 62%

Substance: 5′-GTTCAGGTCCTGGGCAACGG-3 (antisense GTTCAGGTCCTGGGCAACGG; all phosphorothioate, sugars by position and methylation of C not given here) [ASO-OPN-3]
- osteopontin expression in relation to untreated control (100%) (osteopontin; single exposure): 32%
- osteopontin expression in relation to untreated control (100%) (osteopontin; twofold exposure): 38%

Substance: 5′-GAATCCGGTACTGTGGAAGG-3′ (antisense GAATCCGGTACTGTGGAAGG; all phosphorothioate, sugars by position and methylation of C not given here) [ASO-ON-8]
- osteonectin expression in relation to untreated control (100%) (osteonectin; MDA-MB231): 54%
- osteonectin expression in relation to untreated control (100%) (osteonectin; [2]): 38%
- osteonectin expression in relation to untreated control (100%) (osteonectin; MDA-MB435s): 46%

Substance: 5′-GTGGCCACAGCATCTGGGTA-3′ [ASO-OPN-7] (antisense GTGGCCACAGCATCTGGGTA; all phosphorothioate, sugars by position and methylation of C not given here)
- osteopontin expression in relation to untreated control (100%) (osteopontin; single exposure): 31%
- osteopontin expression in relation to untreated control (100%) (osteopontin; twofold exposure): 69%

Substance: 5′-TCAGGTCTGCGAAACTTCTT-3′ [ASO-OPN-10]
- osteopontin expression in relation to untreated control (100%) (osteopontin; twofold exposure): 86%

Substance: 5′-GGTCTGCGAAACTTCTTAGA-3′ [ASO-OPN-9]
- osteopontin expression in relation to untreated control (100%) (osteopontin; twofold exposure): 74%

Substance: 5′-CAAACATTTTAAACATTGGG-3′ (antisense CAAACATTTTAAACATTGGG; all phosphorothioate, sugars by position and methylation of C not given here) [ASO-ON-9]
- osteonectin expression in relation to untreated control (100%) (osteonectin; MDA-MB231): 37%
- osteonectin expression in relation to untreated control (100%) (osteonectin; [2]): 21%
- osteonectin expression in relation to untreated control (100%) (osteonectin; MDA-MB435s): 49%
